Assay results published in article PMC6013238, “Development of novel NEMO-binding domain mimetics for inhibiting IKK/NF-κB activation” (PLoS Biology, 2018).
Several values for one entry are separate records, joined by “and”; a condition that tells them apart may be missing. Identical values can stand only once.

Columns and labels:
NF-κB activation = assay: Dual-luciferase (NF-κB firefly/SV40-Renilla) reporter assay, TNF-α-stimulated HEK293 cells; assay type: cell-based, human; details: for Relative luciferase activity (NF-κB/Renilla): Fig 4B, CTRL about 1; for NF-κB luciferase activity, dose-dependent curve: Fig S1A, CTRL about 100; for IC50: Homo sapiens, HEK293, luciferase assays at 0, 25, 50, 100, 150 μM, GraphPad, read-out: IC50 of inhibition of TNF-α-mediated NF-κB activation
mdx mice = assay: Chronic treatment of mdx mice, hematoxylin-eosin histology of TA muscle; assay type: in vivo, mouse; details: SR 30 mg/kg; for Percentage of area exhibiting necrosis or infiltration, TA muscle: Fig 7C, 8K-NBD 10 mg/kg i.p. 3 times/wk for 4 wk, single mice; for Muscle pathology of TA muscle (hematoxylin-eosin): 8K-NBD 10 mg/kg, 3 times/wk 4 wk
Description: Fig 7 NBD mimetics improve muscular pathology and grip strength in mdx mice. (A) Shown is the treatment regimen with NBD mimetics in mdx mice. (B) Hematoxylin–eosin staining of TA muscle from 7-wk-old, treated or untreated mdx mice. Images were taken at magnification of 20×. Representative images were shown for each treatment group. […] (E) TA muscle from 7-wk-old, treated or untreated mdx mice was stained with laminin by IHC to outline myofibers. Overall images of TA muscle were shown on the left side, and the inset panel images were shown on the right side. (F) Quantitation of minimum Feret diameter in centrally and noncentrally nucleated myofibers. (G) Forelimb force determined by grip strength test. Five-wk-old (2 wk post treatment) and 7-wk-old (4 wk post treatment) mdx mice, treated or untreated, were tested for forelimb grip strength. Five sequential tests were performed, and the force was normalized to body weight. Data were shown as mean +/− SEM. Dosages used are as follows: SR12343 (30 mg/kg), SR12460 (30 mg/kg), and 8K-NBD peptide (10 mg/kg). n = 6–7 each group. *P < 0.05, **P < 0.01. Underlying data can be found in S1 Data. eMyHC, embryonic myosin heavy chain; IHC, immunohistochemistry; NBD, NEMO-binding domain; NEMO, NF-κB essential modulator; Pax7, paired box protein 7; qRT-PCR, quantitative real-time polymerase chain reaction; TA, tibialis anterior.
To determine whether SR12343 and SR12460 improve muscle pathology, TA muscle was stained with hematoxylin–eosin to assess inflammatory infiltration, necrosis, central nucleation, and fibrosis. […] In addition, Masson trichrome stain was conducted to further measure muscle fibrosis. Chronic treatment with SR12343 reduced muscle fibrosis (blue) in diaphragm and TA muscle tissues in comparison to control group (Fig 8A & 8B). To further quantitate the extent of inflammation in mdx muscle tissues, diaphragm and TA muscle were immunostained for cluster of differentiation 68 (CD68), a macrophage marker. Treatment with SR12343 reduced the number of CD68^+ cells by almost 50% per myofiber in both diaphragm and TA tissues (Fig 8A & 8B). […] To quantify the average fiber size in an unbiased way, TA muscle was stained with laminin to outline myofibers, and Feret diameter of all myocytes was quantitated in a whole muscle section.
HEK293 cells and MEFs were grown in Dulbecco’s Modified Eagle Medium (with 4.5 g/L glucose and L-glutamine), supplemented with 10% fetal bovine serum, penicillin, and streptomycin. […]
Supplementary file pbio.2004663.s005.tif: S4 Fig Chronic treatment with NBD mimetics improves muscle pathology by inhibiting NF-κB DNA binding activity in mdx mice. (A) Quantification of percentage of centralized myonuclei. […]

[1] = Body weight of chronically treated mdx mice; details: in g (unit assumed); for Body weight AVG: group average (FigS3A); for Body weight: individual mouse (FigS3A)

Row | Structure (SMILES) | Relative luciferase activity (NF-κB/Renilla) (NF-κB activation; 25 μM) | Relative luciferase activity (NF-κB/Renilla) (NF-κB activation; 50 μM) | Relative luciferase activity (NF-κB/Renilla) (NF-κB activation; 100 μM) | NF-κB luciferase activity, dose-dependent curve (NF-κB activation; 25 μM) | NF-κB luciferase activity, dose-dependent curve (NF-κB activation; 50 μM) | NF-κB luciferase activity, dose-dependent curve (NF-κB activation; 100 μM) | IC50 (NF-κB activation) | Percentage of area exhibiting necrosis or infiltration, TA muscle (mdx mice) | Muscle pathology of TA muscle (hematoxylin-eosin) (mdx mice) | Body weight AVG ([1]; Day 21) | Body weight ([1]; Day 21) | Body weight AVG ([1]; Day 23) | Body weight ([1]; Day 23) | Body weight AVG ([1]; Day 26) | Body weight ([1]; Day 26) | Body weight AVG ([1]; Day 28) | Body weight ([1]; Day 28) | Body weight AVG ([1]; Day 30) | Body weight ([1]; Day 30) | Body weight AVG ([1]; Day 32) | other results
1 | O=C(CNc1ccc(Cl)cn1)NCCc1cccc(Br)c1 [SR12343] | 0.621 and 0.6268 and 0.6057 | 0.3824 and 0.4086 and 0.3925 | 0.327 and 0.2292 and 0.2181 | 62 and 63 and 60 | 38 and 41 and 39 | 33 and 23 and 22 | 37 µM | 2% and 3% and 0% and 1% | most significant pathological improvement | 8.8 | 8.1 and 9 and 8.6 and 10 and 8.3 | 10.48 | 9.5 and 11.4 and 9.8 and 10.7 and 11 | 12.2 | 10.8 and 13.9 and 12.3 and 11.7 | 13.48 | 12.7 and 14.8 and 12.2 and 13.2 and 14.5 | 15.66 | 12.5 and 17.3 and 16.6 and 15.5 and 16.4 | 18.96 | Body weight ([1]; Day 32): 16.4 and 21.5 and 20 and 18 and 18.9; Body weight AVG ([1]; Day 34): 19.78; Body weight ([1]; Day 34): 16.9 and 22.5 and 20.5 and 19.4 and 19.6; Body weight AVG ([1]; Day 37): 20.46; Body weight ([1]; Day 37): 18.3 and 23 and 21.4 and 19.4 and 20.2; Body weight AVG ([1]; Day 39): 21.7333; Body weight ([1]; Day 39): 18.2 and 24.1 and 22.9; Body weight AVG ([1]; Day 41): 22.4; Body weight ([1]; Day 41): 19.6 and 25 and 22.6; Body weight AVG ([1]; Day 44): 22.9667; Body weight ([1]; Day 44): 20 and 24.7 and 24.2; Body weight AVG ([1]; Day 46): 22.8667; Body weight ([1]; Day 46): 21 and 24 and 23.6
2 | O=C(CNCCc1cc(F)cc(F)c1)Nc1ccc(Cl)cn1 [SR12460] | 0.1864 and 0.2241 and 0.2663 | 0.09822 and 0.1016 and 0.1003 | 0.1076 and 0.0851 and 0.1209 | 18.6398 and 22.411 and 26.6317 | 9.822 and 10.1552 and 10.0281 | 10.7557 and 8.5097 and 12.0922 | 11.3 µM | 3% and 6% | improved muscle pathology, although not as effectively as SR12343 | 8.34 | 8.5 and 8.8 and 6.9 and 9 | 9.96 | 10.5 and 9.7 and 8.5 and 10.3 and 10.8 | 11.42 | 12.6 and 10.7 and 10.9 and 11.3 and 11.6 | 13.58 | 14.1 and 14.6 and 13.2 and 12.6 and 13.4 | 14.92 | 16.1 and 13.5 and 14.9 and 14.4 and 15.7 | 18.56 | Relative luciferase activity (NF-κB/Renilla) (NF-κB activation; 150 μM): 0.09311 and 0.129 and 0.1129; NF-κB luciferase activity, dose-dependent curve (NF-κB activation; 150 μM): 9.311 and 12.8976 and 11.2908; Body weight ([1]; Day 32): 20.3 and 16.4 and 20.2 and 18.3 and 17.6; Body weight AVG ([1]; Day 34): 19.58; Body weight ([1]; Day 34): 21 and 17.1 and 21.1 and 18.8 and 19.9; Body weight AVG ([1]; Day 37): 20.22; Body weight ([1]; Day 37): 22.2 and 18.3 and 19.3 and 19.1; Body weight AVG ([1]; Day 39): 21.5333; Body weight ([1]; Day 39): 22.3 and 18.8 and 23.5; Body weight AVG ([1]; Day 41): 22.4; Body weight ([1]; Day 41): 23.1 and 19.5 and 24.6; Body weight AVG ([1]; Day 44): 22.7333; Body weight ([1]; Day 44): 23.7 and 19.3 and 25.2; Body weight AVG ([1]; Day 46): 23.7; Body weight ([1]; Day 46): 25 and 20.1 and 26
